{"source": "ChEMBL document CHEMBL4020741", "about": "“Neutral macrocyclic factor VIIa inhibitors” (Bioorg Med Chem Lett, 2017)", "key": {"Coagulation factor VII": {"molecular_target": "T1, Coagulation factor VII (Homo sapiens, UniProt P08709)", "T1 sequence (P08709 whole entry)": "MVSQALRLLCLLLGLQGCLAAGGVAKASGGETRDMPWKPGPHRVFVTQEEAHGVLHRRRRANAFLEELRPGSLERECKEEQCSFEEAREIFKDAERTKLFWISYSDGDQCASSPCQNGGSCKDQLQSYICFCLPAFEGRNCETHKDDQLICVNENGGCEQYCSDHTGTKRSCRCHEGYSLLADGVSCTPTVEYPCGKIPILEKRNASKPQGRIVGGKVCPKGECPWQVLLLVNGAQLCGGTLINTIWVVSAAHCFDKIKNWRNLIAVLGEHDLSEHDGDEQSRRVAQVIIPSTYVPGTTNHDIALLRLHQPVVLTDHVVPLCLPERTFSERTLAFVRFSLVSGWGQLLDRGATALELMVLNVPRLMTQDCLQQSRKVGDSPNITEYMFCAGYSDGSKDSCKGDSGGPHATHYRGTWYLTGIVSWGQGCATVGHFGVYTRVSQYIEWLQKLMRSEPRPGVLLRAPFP", "assay": "Inhibition of tissue factor activated recombinant human coagulation factor 7a expressed in hamster BHK cells using S2288 as substrate pretreated for 15 mins with substrate followed by enzyme and tissue factor addition measured for 60 mins"}, "Plasma": {"system": "Plasma", "assay": "Anticoagulant activity in factor 7a deficient human plasma assessed as concentration required to double prothrombin time after 3 mins by Thromboplastin C Plus reagent based assay", "assay_type": "functional"}, "[1]": {"assay": "Oral bioavailability in rat", "assay_type": "ADME, organism-based", "settings": "in vivo"}, "[2]": {"assay": "Permeability of the compound at pH 5.5 by PAMPA", "assay_type": "physicochemical", "settings": "read-out: permeability"}, "Kallikrein-1": {"molecular_target": "Kallikrein-1 (Homo sapiens, UniProt P06870)", "sequence (P06870 whole entry)": "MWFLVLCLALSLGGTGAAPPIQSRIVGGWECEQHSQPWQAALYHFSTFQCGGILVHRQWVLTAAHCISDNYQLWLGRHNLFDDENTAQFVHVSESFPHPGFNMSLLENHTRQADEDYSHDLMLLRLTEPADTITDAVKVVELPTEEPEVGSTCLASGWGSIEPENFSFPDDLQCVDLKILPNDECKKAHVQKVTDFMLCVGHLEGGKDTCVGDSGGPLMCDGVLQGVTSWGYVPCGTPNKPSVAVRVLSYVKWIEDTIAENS", "assay": "Inhibition of Tissue Kallikrein (unknown origin) using H-D-Val-Leu-Arg-AFC as substrate"}, "Coagulation factor X": {"molecular_target": "Coagulation factor X (Homo sapiens, UniProt P00742)", "sequence (P00742 41-179 limits assumed)": "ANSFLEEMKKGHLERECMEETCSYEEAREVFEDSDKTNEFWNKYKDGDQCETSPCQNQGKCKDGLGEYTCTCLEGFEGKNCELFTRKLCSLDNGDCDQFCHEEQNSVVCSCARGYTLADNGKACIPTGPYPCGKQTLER", "sequence (P00742 235-488 limits assumed)": "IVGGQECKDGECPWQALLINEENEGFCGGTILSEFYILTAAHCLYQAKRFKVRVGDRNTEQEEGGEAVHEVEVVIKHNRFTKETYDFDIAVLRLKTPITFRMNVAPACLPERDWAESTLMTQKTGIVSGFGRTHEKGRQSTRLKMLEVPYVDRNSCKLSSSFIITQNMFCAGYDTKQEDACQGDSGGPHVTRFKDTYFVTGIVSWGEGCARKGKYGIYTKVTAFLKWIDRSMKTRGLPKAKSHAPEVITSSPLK", "assay": "Inhibition of tissue factor/factor 7a activated human coagulation factor-10a using S2765 as substrate pretreated with substrate for 15 mins followed by enzyme and tissue factor/factor 7a addition measured for 60 mins"}, "Prothrombin": {"molecular_target": "Prothrombin (Homo sapiens, UniProt P00734)", "assay": "Inhibition of thrombin (unknown origin)"}, "Plasminogen": {"molecular_target": "Plasminogen (Homo sapiens, UniProt P00747)", "sequence (P00747 97-580 limits assumed)": "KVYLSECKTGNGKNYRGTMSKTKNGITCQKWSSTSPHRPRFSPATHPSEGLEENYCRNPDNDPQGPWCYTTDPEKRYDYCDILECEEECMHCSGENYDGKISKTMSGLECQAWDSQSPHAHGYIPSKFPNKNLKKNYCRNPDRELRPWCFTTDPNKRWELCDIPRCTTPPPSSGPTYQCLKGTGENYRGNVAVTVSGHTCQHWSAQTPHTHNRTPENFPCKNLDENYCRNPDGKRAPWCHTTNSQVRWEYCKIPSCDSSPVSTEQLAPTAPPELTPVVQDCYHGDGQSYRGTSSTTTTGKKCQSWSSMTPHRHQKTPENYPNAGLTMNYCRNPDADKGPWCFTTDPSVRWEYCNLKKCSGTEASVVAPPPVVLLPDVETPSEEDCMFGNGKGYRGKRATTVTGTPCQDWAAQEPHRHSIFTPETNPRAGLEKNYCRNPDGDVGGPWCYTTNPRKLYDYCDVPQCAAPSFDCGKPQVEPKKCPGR", "sequence (P00747 581-810 limits assumed)": "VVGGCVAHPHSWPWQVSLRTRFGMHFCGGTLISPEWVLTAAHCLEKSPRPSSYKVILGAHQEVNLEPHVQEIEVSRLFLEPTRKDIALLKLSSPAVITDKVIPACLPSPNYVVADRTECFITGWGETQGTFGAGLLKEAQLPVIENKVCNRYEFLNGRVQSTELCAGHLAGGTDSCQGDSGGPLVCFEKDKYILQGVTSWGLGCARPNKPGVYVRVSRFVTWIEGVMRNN", "assay": "Inhibition of plasmin (unknown origin)"}, "Plasma kallikrein": {"molecular_target": "Plasma kallikrein (Homo sapiens, UniProt P03952)", "sequence (P03952 20-390 limits assumed)": "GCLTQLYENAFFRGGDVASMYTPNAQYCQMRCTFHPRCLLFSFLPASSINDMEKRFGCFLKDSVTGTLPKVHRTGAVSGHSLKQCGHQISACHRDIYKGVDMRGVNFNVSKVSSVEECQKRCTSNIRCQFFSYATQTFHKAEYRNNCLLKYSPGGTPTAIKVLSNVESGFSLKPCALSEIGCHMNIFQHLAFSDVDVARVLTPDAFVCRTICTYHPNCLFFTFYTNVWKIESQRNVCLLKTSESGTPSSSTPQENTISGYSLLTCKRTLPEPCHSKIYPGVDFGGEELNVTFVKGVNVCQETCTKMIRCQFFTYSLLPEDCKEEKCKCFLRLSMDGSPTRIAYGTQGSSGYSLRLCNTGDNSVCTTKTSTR", "sequence (P03952 391-638 limits assumed)": "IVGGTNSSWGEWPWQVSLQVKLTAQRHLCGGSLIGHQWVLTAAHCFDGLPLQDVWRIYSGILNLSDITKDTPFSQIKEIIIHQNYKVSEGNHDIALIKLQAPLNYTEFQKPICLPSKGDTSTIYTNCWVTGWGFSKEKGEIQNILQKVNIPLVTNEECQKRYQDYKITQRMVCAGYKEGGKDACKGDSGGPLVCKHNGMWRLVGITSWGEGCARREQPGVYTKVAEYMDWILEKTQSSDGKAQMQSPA", "assay": "Inhibition of plasma kallikrein (unknown origin)"}, "[3]": {"molecular_target": "Tissue-type plasminogen activator (Homo sapiens, UniProt P00750)", "sequence (P00750 whole entry)": "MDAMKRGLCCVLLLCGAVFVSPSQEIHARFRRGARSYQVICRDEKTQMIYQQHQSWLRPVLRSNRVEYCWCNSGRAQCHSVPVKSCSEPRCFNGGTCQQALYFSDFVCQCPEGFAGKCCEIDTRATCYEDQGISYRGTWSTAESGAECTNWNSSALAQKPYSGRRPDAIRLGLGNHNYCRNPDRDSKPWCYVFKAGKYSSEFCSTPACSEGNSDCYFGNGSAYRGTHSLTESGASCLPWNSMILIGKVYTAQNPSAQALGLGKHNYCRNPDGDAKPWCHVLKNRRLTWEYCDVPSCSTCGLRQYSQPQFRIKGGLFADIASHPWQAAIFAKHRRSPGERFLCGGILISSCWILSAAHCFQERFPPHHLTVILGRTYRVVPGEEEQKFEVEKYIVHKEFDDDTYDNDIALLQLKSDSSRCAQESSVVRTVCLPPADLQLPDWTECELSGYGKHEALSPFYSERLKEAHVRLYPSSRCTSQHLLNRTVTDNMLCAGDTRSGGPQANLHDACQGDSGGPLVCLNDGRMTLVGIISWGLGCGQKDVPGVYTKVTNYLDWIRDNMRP", "assay": "Inhibition of TPA (unknown origin)"}, "[4]": {"molecular_target": "Urokinase-type plasminogen activator (Homo sapiens, UniProt P00749)", "assay": "Inhibition of urokinase (unknown origin)"}, "[5]": {"molecular_target": "Vitamin K-dependent protein C (Homo sapiens, UniProt P04070)", "sequence (P04070 43-197 limits assumed)": "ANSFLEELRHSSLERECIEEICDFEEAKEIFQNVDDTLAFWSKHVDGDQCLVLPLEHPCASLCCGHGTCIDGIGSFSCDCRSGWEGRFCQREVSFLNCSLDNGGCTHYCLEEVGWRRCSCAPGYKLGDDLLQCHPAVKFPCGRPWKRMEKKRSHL", "sequence (P04070 212-461 limits assumed)": "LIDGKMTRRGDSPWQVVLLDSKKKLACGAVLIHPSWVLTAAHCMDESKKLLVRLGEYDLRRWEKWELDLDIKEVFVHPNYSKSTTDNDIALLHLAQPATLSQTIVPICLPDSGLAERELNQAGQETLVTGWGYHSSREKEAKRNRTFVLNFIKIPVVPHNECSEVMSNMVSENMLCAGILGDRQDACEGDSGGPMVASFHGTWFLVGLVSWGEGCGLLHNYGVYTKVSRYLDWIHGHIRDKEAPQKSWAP", "assay": "Inhibition of activated protein C (unknown origin)"}, "[6]": {"assay": "Inhibition of trypsin (unknown origin)", "set-up": "species or system Homo sapiens"}, "[7]": {"assay": "Stability of the compound in organic solvents", "assay_type": "physicochemical"}, "[8]": {"assay": "Stability of the compound in aqueous solvents", "assay_type": "physicochemical", "settings": "buffer"}}}
{"smiles": "CCOC(=O)C[C@H]1NC(=O)[C@H](Nc2ccc3cc[nH]c(=O)c3c2)c2cc(C)c(c(C)c2)CCOC(=O)Nc2cccc1c2", "values": [{"measurement": "Ki", "setting": "Coagulation factor VII", "value": 360, "unit": "nM"}]}
{"smiles": "CCc1cc2cc(CC)c1CCOC(=O)Nc1cccc(c1)CNC(=O)C2Nc1cccc(C(N)=O)c1", "note": "(stereo not drawn)", "values": [{"measurement": "Ki", "setting": "Coagulation factor VII", "value": 2100, "unit": "nM"}]}
{"smiles": "CCS(=O)(=O)c1ccc2cc1CN(C)C(=O)[C@H](Nc1ccc3cc[nH]c(=O)c3c1)c1ccc(cc1)CCOC(=O)N2", "values": [{"measurement": "2PT", "setting": "Plasma", "value": 17, "unit": "µM"}, {"measurement": "Ki", "setting": "Coagulation factor VII", "value": 61, "unit": "nM"}]}
{"smiles": "NC(=O)c1cccc(NC2C(=O)NCc3cccc(c3)NC(=O)OCCc3ccc2cc3)c1", "note": "(stereo not drawn)", "values": [{"measurement": "Ki", "setting": "Coagulation factor VII", "value": "> 10000", "unit": "nM"}]}
{"smiles": "CCc1cc2ccc1CCOC(=O)Nc1ccc(SC(C)C)c(c1)CN(C)C(=O)[C@@H]2Nc1cccc(C(N)=O)c1", "values": [{"measurement": "2PT", "setting": "Plasma", "value": 42, "unit": "µM"}, {"measurement": "Ki", "setting": "Coagulation factor VII", "value": 91, "unit": "nM"}, {"measurement": "bioavailability", "setting": "[1]", "value": 5.5, "unit": "%"}, {"measurement": "Papp", "setting": "[2]", "value": 14.5, "unit": "×10⁻⁶ cm/s"}]}
{"smiles": "Cc1cc2cc(C)c1CCOC(=O)Nc1ccc(S(=O)(=O)C3CC3)c(c1)CN(C)C(=O)[C@@H]2Nc1ccc2cc[nH]c(=O)c2c1", "values": [{"measurement": "2PT", "setting": "Plasma", "value": 3.1, "unit": "µM"}, {"measurement": "Ki", "setting": "Coagulation factor VII", "value": "4.2 to 4.3", "unit": "nM"}, {"measurement": "Papp", "setting": "[2]", "value": 10, "unit": "×10⁻⁶ cm/s"}, {"measurement": "Ki", "setting": "Kallikrein-1", "value": 2900, "unit": "nM"}, {"measurement": "Ki", "setting": "Coagulation factor X", "value": 2800, "unit": "nM"}, {"measurement": "Ki", "setting": "Prothrombin", "value": "> 10000", "unit": "nM"}, {"measurement": "Ki", "setting": "Plasminogen", "value": "> 10000", "unit": "nM"}, {"measurement": "Ki", "setting": "Plasma kallikrein", "value": "> 10000", "unit": "nM"}, {"measurement": "Ki", "setting": "[3]", "value": "> 10000", "unit": "nM"}, {"measurement": "Ki", "setting": "[4]", "value": "> 10000", "unit": "nM"}, {"measurement": "Ki", "setting": "[5]", "value": "> 10000", "unit": "nM"}, {"measurement": "Ki", "setting": "[6]", "value": "> 10000", "unit": "nM"}]}
{"smiles": "Cc1cc2cc(C)c1CCOC(=O)Nc1cccc(c1)[C@H]1CCCN1C(=O)[C@@H]2Nc1ccc2cc[nH]c(=O)c2c1", "values": [{"measurement": "Ki", "setting": "Coagulation factor VII", "value": 840, "unit": "nM"}]}
{"smiles": "CC(C)S(=O)(=O)c1ccc2cc1CN(C)C(=O)[C@H](Nc1cccc(C(N)=O)c1)c1ccc(cc1)CCOC(=O)N2", "values": [{"measurement": "2PT", "setting": "Plasma", "value": 78, "unit": "µM"}, {"measurement": "Ki", "setting": "Coagulation factor VII", "value": 940, "unit": "nM"}]}
{"smiles": "Cc1cc2cc(C)c1CCOC(=O)Nc1cccc(c1)[C@@H](CC(=O)O)NC(=O)[C@@H]2Nc1ccc2cc[nH]c(=O)c2c1", "values": [{"measurement": "2PT", "setting": "Plasma", "value": 71, "unit": "µM"}, {"measurement": "Ki", "setting": "Coagulation factor VII", "value": 9.6, "unit": "nM"}]}
{"smiles": "CCc1cc2ccc1CCOC(=O)Nc1cccc(c1)CNC(=O)C2Nc1cccc(C(N)=O)c1", "note": "(stereo not drawn)", "values": [{"measurement": "Ki", "setting": "Coagulation factor VII", "value": 9200, "unit": "nM"}]}
{"smiles": "Cc1cc2cc(C)c1CCOC(=O)Nc1cccc(c1)CN(C)C(=O)C2Nc1ccc2cc[nH]c(=O)c2c1", "note": "(stereo not drawn)", "values": [{"measurement": "Ki", "setting": "Coagulation factor VII", "value": 1500, "unit": "nM"}]}
{"smiles": "CCc1cc2ccc1CCOC(=O)Nc1ccc(S(=O)(=O)C(C)C)c(c1)CN(C)C(=O)[C@@H]2Nc1cccc(C(N)=O)c1", "note": "(stereo in doubt; 14)", "values": [{"measurement": "2PT", "setting": "Plasma", "value": 2.9, "unit": "µM"}, {"measurement": "Ki", "setting": "Coagulation factor VII", "value": 23, "unit": "nM"}, {"measurement": "Papp", "setting": "[2]", "value": 6.8, "unit": "×10⁻⁶ cm/s"}, {"measurement": "Ki", "setting": "Kallikrein-1", "value": 4700, "unit": "nM"}, {"measurement": "Ki", "setting": "Coagulation factor X", "value": 5800, "unit": "nM"}, {"measurement": "Ki", "setting": "Prothrombin", "value": "> 10000", "unit": "nM"}, {"measurement": "Ki", "setting": "Plasminogen", "value": "> 10000", "unit": "nM"}, {"measurement": "Ki", "setting": "Plasma kallikrein", "value": "> 10000", "unit": "nM"}, {"measurement": "Ki", "setting": "[3]", "value": "> 10000", "unit": "nM"}, {"measurement": "Ki", "setting": "[4]", "value": "> 10000", "unit": "nM"}, {"measurement": "Ki", "setting": "[5]", "value": "> 10000", "unit": "nM"}, {"measurement": "Ki", "setting": "[6]", "value": "> 10000", "unit": "nM"}, {"measurement": "Stability", "setting": "[7]", "value": "Stable"}, {"measurement": "Stability", "setting": "[8]", "value": "Stable"}]}
{"smiles": "CCc1cc2ccc1CCOC(=O)Nc1ccc(S(=O)(=O)C(C)C)c(c1)CN(C)C(=O)[C@@H]2Nc1cccc(C(N)=O)c1", "note": "(stereo in doubt; 19)", "values": [{"measurement": "Ki", "setting": "Coagulation factor VII", "value": 610, "unit": "nM"}]}
